Some test systems named below: OVCAR-5 ovarian; NCI-H23 lung; SK-MEL-28 melanoma; HCT-116 colon; A549 NSCLC; NCI-H226 lung; SF-539 CNS; SR leukemia; TK-10 renal; UACC-257 melanoma; DU-145 prostate; CCRF-CEM leukemia; SN12C renal; SF-295 CNS; SW-620 colon; MDA-N.
Common to all, as to test: growth of human tumour cells (NCI), 48 h

This is an account of results in PubChem BioAssay (NCI).

Values joined by “and” are separate entries in the source; they are usually repeats but may differ in a detail not shown here. Identical values can stand only once.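 48-hour exposure; five concentrations; linearly interpolated endpoints. GI50 = concentration required for 50% inhibition of growth. TGI is the concentration that stops growth completely.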

Consider `NCCCn1c2ccccc2c2c3c(c4c(c21)CCC(O)CC4)C(=O)NC3=O` (centres undefined), for which the TGI with OVCAR-5 ovarian was determined as 15.5 µM; in the assay on NCI-H23 lung, 14.3 µM; in the assay on SK-MEL-28 melanoma, 13.1 µM; with HCT-116 colon, 28.4 µM; in the assay on A549 NSCLC, 21.6 µM; with NCI-H226 lung it was 13.6 µM. For the same compound, the TGI worked out at 21.6 µM with SF-539 CNS; 5.15 µM in the assay with SR leukemia; 14.7 µM in the assay on TK-10 renal; 29.7 µM in the assay with UACC-257 melanoma; 14.1 µM in the assay on DU-145 prostate; 10.4 µM in the assay with CCRF-CEM leukemia. The values for the TGI in the assay on SN12C renal, in the assay on SF-295 CNS and in the assay on SW-620 colon were 13.6 µM, 15.6 µM and 5.19 µM, respectively.
Take `CC(C)CCC[C@@H](C)[C@H]1CCC2C3CC=C4C[C@@H](Oc5c6ccccc6nc6ccccc56)CCC4C3CCC21` (some centres undefined): the TGI in the assay with OVCAR-5 ovarian, in the assay with NCI-H23 lung, in the assay on SK-MEL-28 melanoma, in the assay with HCT-116 colon, in the assay on A549 NSCLC and in the assay with NCI-H226 lung was more than 50 µM throughout. For the same compound, the TGI with SF-539 CNS, with MDA-N, in the assay on TK-10 renal, with UACC-257 melanoma, in the assay with DU-145 prostate and in the assay with CCRF-CEM leukemia was more than 50 µM in each case. Also, the TGI with SN12C renal, in the assay on SF-295 CNS and in the assay with SW-620 colon was more than 50 µM throughout.
For `CCOC(=O)Oc1cc2c(c(OC)c1OC)-c1ccc(SC)c(=O)cc1C(NC(=O)C(F)(F)F)CC2` (centres undefined), the GI50 is 18.2 µM in the assay with OVCAR-5 ovarian, less than 0.001 µM with NCI-H23 lung and 0.0135 µM in the assay with SN12C renal. The TGI in the assay on OVCAR-5 ovarian is more than 100 µM; in the assay on SK-MEL-28 melanoma, more than 100 µM; in the assay with A549 NSCLC, more than 100 µM; in the assay with NCI-H226 lung it was 0.00301 µM; in the assay on SR leukemia it was 5.4 µM and 15.6 µM; in the assay on MDA-N, less than 0.001 µM. The TGI with UACC-257 melanoma was 37.9 µM; in the assay on CCRF-CEM leukemia, 4.92 µM; in the assay on SN12C renal it was more than 100 µM; in the assay with SF-295 CNS it was more than 100 µM; in the assay with SW-620 colon, more than 100 µM.
`COc1ccccc1C1SCC(=O)N1c1ccc(-c2ccc(-n3c(-c4ccccc4)nc4ccccc4c3=O)cc2)cc1` (centres undefined): the TGI in the assay with OVCAR-5 ovarian, in the assay with NCI-H23 lung, with SK-MEL-28 melanoma, with HCT-116 colon, in the assay with A549 NSCLC and with NCI-H226 lung was more than 100 µM each time. The TGI with SF-539 CNS, in the assay on MDA-N, in the assay with TK-10 renal, with UACC-257 melanoma, in the assay with DU-145 prostate and in the assay with CCRF-CEM leukemia was more than 100 µM throughout. Moreover, the TGI in the assay with SN12C renal, in the assay on SF-295 CNS and in the assay with SW-620 colon was more than 100 µM throughout.
Turning to `CC12CCC(C(=O)O1)C(C)(C)O2` (centres undefined), the TGI with OVCAR-5 ovarian, in the assay with NCI-H23 lung, in the assay on SK-MEL-28 melanoma, with HCT-116 colon, in the assay on A549 NSCLC and in the assay on NCI-H226 lung was more than 100 µM each time. For the same compound, the TGI in the assay on SF-539 CNS, in the assay on SR leukemia, with MDA-N, in the assay with TK-10 renal, in the assay with UACC-257 melanoma and in the assay on CCRF-CEM leukemia was more than 100 µM each time. Moreover, the TGI with SN12C renal, with SF-295 CNS and in the assay on SW-620 colon was more than 100 µM each time.
On to `CCCCCCCCCCCCCCCCCCNc1ccn(C2OC(COP(=O)(O)OCC3CCC(n4cnc5c(=O)[nH]cnc54)O3)C(O)C2O)c(=O)n1` (centres undefined), for which the TGI in the assay with OVCAR-5 ovarian, in the assay with NCI-H23 lung, with SK-MEL-28 melanoma, with HCT-116 colon, in the assay on A549 NSCLC and with NCI-H226 lung was more than 100 µM throughout. Further, the TGI with SF-539 CNS, in the assay with MDA-N, in the assay on TK-10 renal, in the assay on UACC-257 melanoma, in the assay on DU-145 prostate and in the assay with CCRF-CEM leukemia was more than 100 µM each time. For the same compound, the TGI in the assay on SN12C renal, in the assay with SF-295 CNS and with SW-620 colon was more than 100 µM each time.
In the case of `Cc1ccsc1/C=N/Nc1cc(C)c2cccc(C)c2n1`, the TGI in the assay with OVCAR-5 ovarian, in the assay on NCI-H23 lung, in the assay with SK-MEL-28 melanoma, in the assay on A549 NSCLC, in the assay on NCI-H226 lung and in the assay on MDA-N was more than 100 µM in each case. Moreover, the TGI with TK-10 renal, with UACC-257 melanoma, in the assay on DU-145 prostate, in the assay on SN12C renal, in the assay on SF-295 CNS and with SW-620 colon was more than 100 µM in each case.
`O=C1NC(N/N=C\C(O)C(O)C(O)CO)=N/C1=C/c1ccc(Cl)cc1` (centres undefined): the TGI with OVCAR-5 ovarian, in the assay with NCI-H23 lung, in the assay on SK-MEL-28 melanoma, in the assay on HCT-116 colon, in the assay on A549 NSCLC and in the assay on NCI-H226 lung was more than 100 µM each time. Moreover, the TGI with SF-539 CNS, in the assay with MDA-N, with TK-10 renal, in the assay with UACC-257 melanoma, in the assay on DU-145 prostate and in the assay on CCRF-CEM leukemia was more than 100 µM each time. Further, the TGI in the assay with SN12C renal, with SF-295 CNS and in the assay on SW-620 colon was more than 100 µM each time.
With `O=c1/c(=C\c2ccccc2)sc2n1C(c1ccccc1)C1(O)CCCCC1N=2` (centres undefined), the TGI in the assay on OVCAR-5 ovarian, in the assay with NCI-H23 lung, in the assay on SK-MEL-28 melanoma, in the assay on HCT-116 colon, in the assay with A549 NSCLC and in the assay with NCI-H226 lung was more than 100 µM throughout. The TGI in the assay with SR leukemia, in the assay with MDA-N, in the assay on TK-10 renal, in the assay with UACC-257 melanoma, with CCRF-CEM leukemia and in the assay on SN12C renal was more than 100 µM each time. In the assay with SW-620 colon, this compound returned a TGI of more than 100 µM.
